What was measured:
[1] = cited from earlier work
[2] = Solubility measurement of berberine salts in water (Example 3); conditions: room temperature (about 20° C.)

| Compound | loss of water ([1]; elevated temperature or low humidity environment) | uptake of water ([1]; in water or a high humidity environment, converts to tetrahydrate form) | solubility in water at room temperature [2] [mg/mL] |
| --- | --- | --- | --- |
| COc1ccc2cc3[n+](cc2c1OC)CCc1cc2c(cc1-3)OCO2 [berberine chloride, berberine chloride dihydrate] | more than 8% | about 8% |  |
| berberine hemi-sulfate |  |  | > 20 |

— patent US12358922B1, “Berberine alpha-ketoglutarate salt, crystalline form, methods of preparation and applications thereof” (priority 2024, dated 2025)
